Test results: ChEMBL document CHEMBL5352415, “Discovery of new macrophage M2 polarization modulators as multiple sclerosis treatment agents that enable the inflammation microenvironment remodeling” (Eur J Med Chem, 2022)
Activity calls are given as the source filed them. The rule behind the calls is not given here.

Key:
Mus musculus [1] = test: (§1) Anti-inflammatory activity in MOG (35 to 55 residues)/pertussis toxin-induced experimental autoimmune encephalomyelitis C57BL/6 mouse model assessed as T cell activation by measuring decrease in CD44hi CD62Llo T cells in spleen at 75 to 150 mg/kg, po administered once daily starting from day 7 to day 20 by flow cytometric analysis; assay type: functional; design: scale not given: the % may be the effect or the level left; conditions: dose 75-150 mg/kg, time 14 day
[2] = Inhibition of M1 macrophage polarization in C57BL/6 mouse BMDM cells assessed as fold change in IL-1beta gene level at 1 uM incubated for 24 hrs by qRT-PCR analysis (reference value: 1); assay type: functional
Mus musculus [3] = test: (§2) Anti-inflammatory activity in MOG (35 to 55 residues)/pertussis toxin-induced experimental autoimmune encephalomyelitis C57BL/6 mouse model assessed as inhibition of CD4+ T cell differentiation by measuring reduction in Th17 (Il-4+) cells in spleen administered orally once daily starting from day 7 to day 20 by flow cytometric analysis; assay type: functional, organism-based; conditions: dose 75-150 mg/kg, route po, time 14.0 day
Mus musculus [4] = test: (§3) Anti-inflammatory activity in MOG (35 to 55 residues)/pertussis toxin-induced experimental autoimmune encephalomyelitis C57BL/6 mouse model assessed as M2 macrophage polarization by measuring increase in Mrc1 mRNA expression in CNS at 75 to 150 mg/kg, po administered once daily starting from day 7 to day 20 by qRT-PCR analysis; assay type: functional, organism-based; conditions: dose 75-150 mg/kg, time 14.0 day
Mus musculus [5] = test: as §2, with “DLN” for “spleen”; assay type: functional, organism-based; conditions: dose 75-150 mg/kg, route po, time 14.0 day
Mus musculus [6] = test: Anti-inflammatory activity in MOG (35 to 55 residues)/pertussis toxin-induced experimental autoimmune encephalomyelitis C57BL/6 mouse model assessed as decrease in disease progression by measuring clinical score at 75 to 150 mg/kg, po administered once daily starting from day 7 to day 20; assay type: functional, organism-based; conditions: dose 75-150 mg/kg, time 14.0 day
Mus musculus [7] = test: as §3, with “Arg1” for “Mrc1”; assay type: functional, organism-based; conditions: dose 75-150 mg/kg, time 14.0 day
BMDM = test: Inhibition of LPS-induced M1 macrophage polarization in C57BL/6 mouse BMDM cells assessed as decrease in Inos gene level preincubated with LPS for 24 hrs followed by compound addition and measured after 24 hrs by qRT-PCR analysis; assay type: functional, cell-based; conditions: dose 0.05-2 µM
Mus musculus [8] = test: as §2, with “Th1 (IFN-gamma+)” for “Th17 (Il-4+)”, “DLN” for “spleen”; assay type: functional, organism-based; conditions: dose 75-150 mg/kg, route po, time 14.0 day
[9] = AUC(0 to t) in ICR mouse at 50 mg/kg, po measured upto 24 hrs by LC/MS analysis; assay type: ADME, organism-based; design: dose 50 mg/kg, time < 24 hrs, route po; conditions: in vivo
Mus musculus [10] = test: as §1, with “as” for “as T cell activation by measuring”, “F4/80+ CD86+ M1 macrophage” for “CD44hi CD62Llo T cells”, “DLN” for “spleen”; assay type: functional, organism-based; conditions: dose 75-150 mg/kg, time 14.0 day

Which Activity (Mus musculus [1]) does the source give for `Cl.Cn1ncc(Br)c1-c1ccc(C(=O)N[C@@H]2CNCC[C@H]2c2ccc(F)c(F)c2)cc1C1CC1` here?
The Activity was 19%.

What about the “fold change (FC)” value [2] of the same compound?
The value was 4.15.

What about the Activity (Mus musculus [3]) of the same compound?
Its Activity is “Dose-Dependent Effect”.

What about the Activity (Mus musculus [4]) of the same compound?
The Activity was “Active”.

What about the Activity (Mus musculus [5]) of the same compound?
The Activity was “Dose-Dependent Effect”.

And the Activity (Mus musculus [6])?
Its Activity is “Active”.

What about the Activity (Mus musculus [7]) of the same compound?
Its Activity is “Active”.

And the inhibition (BMDM)?
Its inhibition is “Dose-Dependent Effect”.

And the Activity (Mus musculus [8])?
The Activity was “Dose-Dependent Effect”.

And the AUC(0-t) at 24 h [9]?
Its AUC(0-t) at 24 h is 27600 ng·h/mL.

And the Activity (Mus musculus [10])?
The Activity was “Active”.
